Reference: patent publication US20110104301A1, “METHODS OF REDUCING PAIN AND INFLAMMATION” (Georgetown University, A Congressionally Chartered …, priority 2008, published 2011)

Assays:
[1] = system: DRG neurons from TRPA1-null mice; experiment: Ca2+ imaging in DRG neurons from TRPA1-null mice; assay type: cell-based, mouse; conditions: desflurane n=125, propofol n=120
Description: Ca^2+ Imaging. Neurons were loaded with 1 μM Fluo4-AM (Molecular Probes) for 20 min and washed for a further 10-20 min before recording. The dye was excited at 488±15 nm. Emitted fluorescence was filtered with a 535±25 nm bandpass filter, captured by a SPOT RT digital camera (Diagnostic Instruments) and read into a computer. Analysis was performed offline by using Simple PCI software (Compix Inc.).

mice = experiment: AITC (mustard oil)-induced ear swelling, neurogenic inflammation during anesthesia; assay type: in vivo, mouse; conditions: 1.2 MAC
Description: Behavioral Experiments and Neurogenic Inflammation. Animal experiments were performed according to National Institutes of Health and institutional guidelines. […] Nocifensive behavior (nose wiping in sawdust bedding) was recorded for 2 min with a video camera and the duration was subsequently measured by a blinded observer. […] Electromyographic (EMG) activity was recorded via platinum electrodes from the semitendinosus muscle in mice anesthetized with urethane (1.3 g/kg) as described in Ando and Watanabe, Br J. Anaesth. […] The EMG signal was recorded by using a low-pass cutoff frequency of 200 Hz and integrated offline by using a 100-ms time window. […] Ear thickness was recorded by using an engineer's micrometer (Mitutoyo Corp.) before mustard-oil application and thereafter every 15 min for 60 min of anesthesia and 60 min of recovery.

| SMILES | Ca2+ responses in neurons from TRPA1-null mice [1] | AITC-induced ear swelling during anesthesia, compared with sevoflurane (mice; AITC 0.6%, 15-120 min, n=7, P<0.01) | Swelling in the unpainted ear (mice; at 90 and 120 min) |
| --- | --- | --- | --- |
| FC(F)OC(F)C(F)(F)F (stereo not drawn) [desflurane] | no responses | – | – |
| FC(F)OC(Cl)C(F)(F)F (stereo not drawn) [isoflurane] | – | significantly greater swelling | small increase in swelling |
